Patent US20060258726A1, “1,5-Disubstituted imidazolidin-2-one derivatives for use as ep4 receptor agonists in the treatment of eye and bone diseases” (priority 2002, published 2006)

What was measured:
intracellular cAMP = assay: Effect of PGE2 on intracellular cAMP in osteoblastic cell lines; format: cell-based, rat
EP4 mRNA [1] = assay: EP4 mRNA levels in bone-derived cell lines (Northern blot); format: cell-based, rat
Procedure: (§1) RP-1 periosteal cells are spontaneously immortalized from primary cultures of periosteal cells from tibae of 4-week old Sprague-Dawley rats and are cultured in DMEM (BRL, Gaithersburg, Md.) with 10% fetal bovine serum (JRH Biosciences, Lenexa, Kans.).
RCT-1 and RCT-3 are clonal cell lines immortalized by SV-40 large T antigen from cells released from fetal rat calvair by a cmbination collagenase/hyaluronidase digestion. RCT-1 cells, derived from cells released during the first 10 minutes of digestion (fraction I), are cultured in RPMI 1640 medium (BRL) with 10% fetal bovine serum and 0.4 mg/ml G418 (BRL). These cells differentiate and express osteoblastic features upon retinoic acid treatment. RCT-3 cells, immortalized from osteoblast-enriched fraction III cells, are cultured in F-12 medium (BRL) with 5% Fetal bovine serum and 0.4 mg/ml G418. TRAB-11 cells are also immortalized by SV40 large T antigen from adult rat tibia and are cultured in RPML 1640 medium with 10% FBS and 0.4 mg/ml G418. ROS 17/2.8 rat osteosarcoma cells are cultured in F-12 containing 5% FBS. Osteoblast-enriched (fraction E) primary fetal rat calvaria cells are obtained by collagenase/hyaluronidase digestion of calvariae of 19 day-old rat fetuses. See Rodan et al., Growth stimulation of rat calvaria osteoblastic cells by acidic FGF, Endocrinology, 121, 1919-1923 (1987), which is incorporated by reference herein in its entirety. Cells are released during 30-50 minutes digestion (fraction E) and are cultured in F-12 medium containing 5% […].
(§2) Total RNA is extracted from the tibial metaphysis or diaphysis and calvaria using a guanidinium isothiocyanate-phenol-chloroform method after pulverizing frozen bone samples by a tissue homogenizer. See P. Chomczynski et al., Single-step method of RNA isolation by acid guanlidium thiocyanate-phenol-chloroform extraction., Analyt Biochem, 162, 156-159 (1987), which is incorporated by reference herein in its entirety. RNA samples ([…]) are separated on 0.9% agarose/formaldehyde gels and transferred onto nylon membranes (Boehringer Mannheim, Germany). […]

EP2 mRNA [2] = assay: EP2 mRNA in RP-1 periosteal cells (Northern blot); format: cell-based, rat; conditions: RP-1 cells
Procedure: as §1
(§3) Total RNA is extracted from the tibial metaphysis or diaphysis and calvaria using a guanidinium isothiocyanate-phenol-chloroform method after pulverizing frozen bone samples by a tissue homogenizer. See P. Chomczynski et al., Single-step method of RNA isolation by acid guanlidium thiocyanate-phenol-chloroform extraction., Analyt Biochem, 162, 156-159 (1987), which is incorporated by reference herein in its entirety. RNA samples ([…]) are separated on 0.9% agarose/formaldehyde gels and transferred onto nylon membranes (Boehringer Mannheim, Germany). Membranes are prehybridized in Hybrisol I (Oncor, Gaithersburg, Md.) and 0.5 mg/ml sonicated salmon sperm DNA (Boehringer) at 42° C. for 3 hours and are hybridized at 42° C. with rat EP2 and mouse EP4 cDNA probes labeled with [^32P]-dCTP (Amersham, Buckinghamshire, UK) by random priming using the rediprime kit (Amersham). After hybridization, membranes are washed 4 times in 2×SSC+0.1% SDS at room temperature for a total of 1 hour and once with 0.2×SSC+0.1% SDS at 55° C. for 1 hour and then exposed to Kodak XAR 2 film at −70° C. using intensifying screens. […]

EP4 mRNA [3] = assay: EP4 mRNA levels in bone tissue after systemic injection (Northern blot); format: in vivo, rat; conditions: tibial diaphysis, 3-6 mg/Kg systemic
Text: For mRNA localization experiments, 5-week old Sprague-Dawley rats (Charles River) are euthanized by CO2, their tibiae and calvariae are excised, cleaned of soft tissues and frozen immediately in liquid nitrogen. […] Animals are euthanized at several time points post-injection and their tibiae and calvariae, as well as samples from lung and kidney tissues are frozen in liquid nitrogen.
as §3, with “(Amersham).” for “(Amersham). After hybridization, membranes are washed 4 times in 2×SSC+0.1% SDS at room temperature for a total of 1 hour and once with 0.2×SSC+0.1% SDS at 55° C. for 1 hour and then exposed to Kodak XAR 2 film at −70° C. using intensifying screens.”

EP2 mRNA [4] = assay: EP2 mRNA in bone tissue after systemic injection (Northern blot); format: in vivo, rat
Procedure: (§4) For mRNA localization experiments, 5-week old Sprague-Dawley rats (Charles River) are euthanized by CO2, their tibiae and calvariae are excised, cleaned of soft tissues and frozen immediately in liquid nitrogen. For EP4 regulation experiments, 6-week old rats are given a single injection of either vehicle (7% ethanol in sterile water) or an anabolic dose of PGE2 (Cayman Chemical, Ann Arbor, Mich., 3-6 mg/kg in the same vehicle) intraperitoneally. Animals are euthanized at several time points post-injection and their tibiae and calvariae, as well as samples from lung and kidney tissues are frozen in liquid nitrogen.
as §2

EP4 mRNA [5] = assay: Localization of EP4 mRNA expression in bone tissue by in situ hybridization; format: in vivo; conditions: single anabolic dose, rat tibia
Procedure: as §4
Frozen tibiae are sectioned coronally at […] thickness and sections are mounted on charged slides (Probe On Plus, Fisher Scientific, Springfield, N.J.) and are kept at −70° C. until hybridization. cRNA probes are labeled with ^35S-UTPgS (ICN, Costa Mesa, Calif.) using a Riboprobe II kit (Promega Madison, Wis.). Hybridization is performed overnight at 50° C. […]
In situ hybridization is used in order to localize cells expressing EP4 in bone. In control experiment (vehicle-injected) rats, low expression of EP4 is detected in bone marrow cells. […]

## CCCCC[C@H](O)/C=C/[C@H]1[C@H](O)CC(=O)[C@@H]1C/C=C\CCCC(=O)O [PGE2]
Intracellular cAMP; RCT-3 cells
  effect on intracellular cAMP: markedly induced
Intracellular cAMP; ROS 17/2.8 rat osteosarcoma cells
  effect on intracellular cAMP: no effect
Intracellular cAMP; TRAB-11 cells
  effect on intracellular cAMP: markedly induced
EP4 mRNA [1]; RCT-3 cells
  effect on EP4 mRNA levels: no effect
EP4 mRNA [1]; RP-1 periosteal cells, 10^−6 M
  effect on EP4 mRNA levels: rapidly increases
  time of peak EP4 mRNA level after treatment: 2 h
EP2 mRNA [2]
  EP2 mRNA expression before or after treatment: not expressed
EP4 mRNA [3]
  time of peak EP4 mRNA level after injection: 2 h
EP4 mRNA [3]; five-week-old male rats
  effect on EP4 mRNA levels: rapidly increased
EP2 mRNA [4]
  induction of EP2 mRNA: does not induce
EP4 mRNA [5]
  expression of EP4 in bone marrow cells: increased
